Data from patent US20260115190A1, “DISPERSIONS OF ETRUMADENANT” (Arcus Biosciences, Inc., priority 2022, published 2026).

Experiments:
[1] = Thermal analysis by MDSC (Tg); assay type: physicochemical; details: amorphous etrumadenant made by melt quenching; one experiment
Experimental: Thermal Properties. Thermal properties were measured using a TA Instruments Discovery DSC2500 DSC equipped with a TA instruments Refrigerated Cooling System 90 operating in modulated mode. Briefly, bulk drug substance was analyzed by standard DSC with a heating rate of 10° C. per minute ramping up to 220° C. Amorphous etrumadenant was created from the starting drug substance by rapidly melt quenching using liquid N2 and then analyzed by modulated DSC (MDSC). Events monitored include the glass transition temperature (Tg), cold crystallization (Tc), defined as a crystallization event at a temperature lower than the melt temperature, and melting temperature (Tm). In one experiment, the thermal properties were as follows: Tg=69° C.; Tc=no crystallization up to 220° C.; Tm=192° C. Minor lot-to-lot variation may occur.

[2] = tested on: CYP3A4, CYP2C8, and uridine 5′-diphospho glucuronosyltransferase (UGT) enzyme isoforms; experiment: In vitro metabolism of etrumadenant; assay type: in vitro ADME; details: in vitro data
A2AR = A2AR (Homo sapiens, UniProt P29274); details: antagonist; has been reported; cited from earlier work
Sequence of A2AR (P29274 whole entry): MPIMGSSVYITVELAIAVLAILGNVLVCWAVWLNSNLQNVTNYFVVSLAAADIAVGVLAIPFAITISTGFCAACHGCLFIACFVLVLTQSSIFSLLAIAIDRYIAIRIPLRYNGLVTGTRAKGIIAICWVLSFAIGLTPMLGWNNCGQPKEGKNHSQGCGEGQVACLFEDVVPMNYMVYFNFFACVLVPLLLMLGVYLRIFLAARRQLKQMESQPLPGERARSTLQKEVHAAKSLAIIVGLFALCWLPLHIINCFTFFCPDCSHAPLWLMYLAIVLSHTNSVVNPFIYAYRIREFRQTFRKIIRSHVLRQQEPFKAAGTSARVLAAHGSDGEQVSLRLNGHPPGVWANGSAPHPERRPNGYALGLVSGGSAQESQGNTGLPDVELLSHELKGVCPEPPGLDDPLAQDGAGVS

[3] = Phase 1 relative bioavailability (capsule v. tablet) and food effect study; assay type: in vivo, human
Description: This example describes a Phase 1 study to compare the single-dose PK of an etrumadenant tablet versus an etrumadenant capsule, in healthy adult participants (19-55 years of age), and to evaluate the effect of food on the single-dose PK of etrumadenant tablet, in healthy adult participants.
The study was an open-label, randomized, 3-treatment, 3 period crossover study to evaluate the relative bioavailability (BA) of etrumadenant tablet and capsule formulations and the effect of food on the tablet formulation. On Day 1 of each period, a single dose of etrumadenant was administered in a 3-period crossover fashion. Participants (n=24) received etrumadenant capsules under fasting (Treatment A) conditions and etrumadenant tablets under fasting (Treatment B) and fed (high-fat meal; Treatment C) conditions. PK samples for etrumadenant and its metabolites were taken predose and up to 120 hours post dose. There was a washout of at least 7 days between the etrumadenant doses. All participants who received at least one dose of etrumadenant (including participants who terminate the study early) were asked to return to the Clinical Research Unit (CRU) 14 (+2) days after the last dose for follow-up procedures, and to determine if any adverse event (AE) has occurred since the last study visit.
Study treatments are described as follows. […]
Additional PK parameters were calculated if deemed appropriate. […]

[4] = Non-sink dissolution (0.1N HCl to FaSSIF gastric transfer); assay type: physicochemical
Experimental: In vitro drug dissolution performance for each dispersion was evaluated under non-sink conditions in a two-stage process that simulates pH and bile salt concentrations for both gastric and intestinal exposure. In vitro dissolution testing under non-sink conditions allows for a direct evaluation of each dispersion's ability to generate and maintain supersaturation above crystalline etrumadenant's solubility; was used as a predictive surrogate for ensuring product quality and in vivo performance; and is an effective test to discriminate between formulations at a given stability condition.
To begin dissolution (t=0), a sample of SDI powder was briefly suspended in 4 mL of FaSSIF (2 mg/mL SIF in 100 mM PBS) and then transferred into 50 mL SGF (0.1 N HCl (aq)) pre-heated to 37° C. in a USP Type 2 mini-vessel (100 mL total vessel volume) with stirring (paddles) at 100 rpm. At 30 minutes, a gastric transfer step was performed wherein the volume in each dissolution vessel was approximately doubled using 2×FaSSIF (4.48 mg/mL SIF powder (BioRelevant)), resulting in a final pH of 6.8 in a total volume of 100 mL. Samples taken before and after this transfer at indicated times were evaluated for drug concentration by HPLC. The drug concentrations measured in this test are a composite of SDI free drug, drug in micelles, and drug suspended in solution. A summary of the dissolution and HPLC parameters are shown in Table 6 and Table 7, respectively.

P-gp = P-gp (Homo sapiens, UniProt P08183); experiment: In vitro transporter substrate data (P-gp); assay type: in vitro ADME
Sequence of P-gp (P08183 whole entry): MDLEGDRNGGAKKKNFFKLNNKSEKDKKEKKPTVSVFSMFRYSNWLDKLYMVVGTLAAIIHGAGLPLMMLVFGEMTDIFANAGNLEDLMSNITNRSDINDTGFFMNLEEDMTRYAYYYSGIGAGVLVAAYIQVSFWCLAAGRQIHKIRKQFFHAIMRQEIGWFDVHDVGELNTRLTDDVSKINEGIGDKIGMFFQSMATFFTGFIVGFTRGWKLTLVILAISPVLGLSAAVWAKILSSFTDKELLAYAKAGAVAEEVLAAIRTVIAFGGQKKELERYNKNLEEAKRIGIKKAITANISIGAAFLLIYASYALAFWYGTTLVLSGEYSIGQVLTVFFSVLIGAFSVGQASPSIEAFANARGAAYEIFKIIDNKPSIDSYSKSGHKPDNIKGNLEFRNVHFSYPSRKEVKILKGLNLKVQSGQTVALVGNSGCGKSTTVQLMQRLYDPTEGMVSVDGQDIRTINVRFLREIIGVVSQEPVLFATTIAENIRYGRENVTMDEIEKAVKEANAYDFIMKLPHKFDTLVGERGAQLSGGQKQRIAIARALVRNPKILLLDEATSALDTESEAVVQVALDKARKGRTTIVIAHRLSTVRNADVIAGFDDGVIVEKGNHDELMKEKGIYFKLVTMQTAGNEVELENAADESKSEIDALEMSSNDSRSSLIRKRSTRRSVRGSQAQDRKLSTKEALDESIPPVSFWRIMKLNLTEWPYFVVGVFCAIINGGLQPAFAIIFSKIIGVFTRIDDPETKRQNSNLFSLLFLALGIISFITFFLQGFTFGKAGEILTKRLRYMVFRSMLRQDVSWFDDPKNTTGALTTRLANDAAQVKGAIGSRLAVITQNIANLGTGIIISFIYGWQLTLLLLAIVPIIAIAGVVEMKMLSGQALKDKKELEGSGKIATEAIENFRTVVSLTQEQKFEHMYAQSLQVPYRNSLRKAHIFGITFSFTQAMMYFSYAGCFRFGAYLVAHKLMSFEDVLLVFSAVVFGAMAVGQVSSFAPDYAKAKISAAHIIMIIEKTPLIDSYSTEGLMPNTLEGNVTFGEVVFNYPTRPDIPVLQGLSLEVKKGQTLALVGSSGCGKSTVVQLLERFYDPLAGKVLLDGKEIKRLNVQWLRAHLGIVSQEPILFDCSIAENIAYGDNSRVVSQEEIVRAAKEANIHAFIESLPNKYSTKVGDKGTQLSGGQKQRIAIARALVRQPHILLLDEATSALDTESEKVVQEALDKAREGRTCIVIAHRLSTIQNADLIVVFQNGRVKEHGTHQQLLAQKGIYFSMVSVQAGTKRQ

[5] = IV reference AUClast in beagle dogs; details: dog, in vivo, IV at 5 mg/kg

glass transition temperature (Tg) [1]: 69 °C | Cmax, AUC and Tmax in capsules and tablets ([3]; 150 mg, fasting): statistically equivalent | effect of fed conditions on overall exposure (AUClast and AUCINF) compared to fasting condition ([3]; tablet 150 mg): no effect | AUC35-210 FaSSIF ([4]; Example 4, after transfer to FaSSIF from 35 to 210 minutes): 8000 min*μgA/mL | C210 ([4]; Example 4, drug concentration at 210 minutes (180 minutes after transfer to FaSSIF)): 37.9 μgA/mL | Cmax FaSSIF ([4]; Example 4, maximum drug concentration after transfer to FaSSIF): 155.0 μgA/mL | AUC35-210 FaSSIF ([4]; Example 5, t = 0): 3800 min*μgA/mL | C210 ([4]; Example 5, t = 0): 15.5 μgA/mL | Total Drug CmaxFaSSIF ([4]; Example 5, t = 0): 129.9 μgA/mL | C210 ([4]; Example 5, t = 0, listed as AB928 starting drug substance): 15.6 μgA/mL | substrate of P-gp (P-gp): substrate | AUC(0-t) [5]: 25100 ng·h/mL
Structure (SMILES): Cc1c(C#N)cccc1-c1cc(-c2cn(Cc3cccc(C(C)(C)O)n3)nn2)nc(N)n1 [Etrumadenant, 3-[2-amino-6-(1-{[6-(2-hydroxypropan-2-yl)pyridine-2-yl]methyl}-1H-1,2,3-triazol-4-yl)pyrimidin-4-yl]-2-methylbenzonitrile]
etrumadenant metabolism mediated by [2]: mediated by CYP3A4, CYP2C8, and uridine 5′-diphospho glucuronosyltransferase (UGT) enzyme isoforms | potency on A2AR (A2AR): less than 10 nM
